Reference: PubChem BioAssay AID210 (DTP/NCI, 2004)
Toxic doses and inconclusive results are not listed.

System: CD2F1 mice, ip Colon 26 adenocarcinoma, median survival T/C
Assay: NCI In Vivo Anticancer Drug Screen. Data for tumor model Colon 26 Adenocarcinoma (intraperitoneal) in CD2F1 (CDF1) mice
Settings: endpoint: median survival time, higher = longer survival
Experimental: The antitumor activity of compounds was measured in mice bearing transplantable tumors. Survival or tumor size were measured and the results are expressed as the measurement made in the treated group (T) divided by the measurement made in the vehicle treated control group (C). The tumor model used in this assay is Colon 26 Adenocarcinoma (intraperitoneal) in CD2F1 (CDF1) mice

SMILES: CC1CC2OC2/C=C\C=C\C(=O)Cc2c(Cl)c(O)cc(O)c2C(=O)O1 (stereo not given)
- T/C (dose: 12.5 mg/kg/injection, schedule: Q04DX002 (ip), vehicle: Klucel (hydroxypropylcellulose) (HPC)): 94 % of control
- T/C (dose: 25.0 mg/kg/injection, schedule: Q04DX002 (ip), vehicle: Klucel (hydroxypropylcellulose) (HPC)): 92 % of control
- T/C (dose: 50.0 mg/kg/injection, schedule: Q04DX002 (ip), vehicle: Klucel (hydroxypropylcellulose) (HPC)): 99 % of control
- T/C (dose: 100.0 mg/kg/injection, schedule: Q04DX002 (ip), vehicle: Klucel (hydroxypropylcellulose) (HPC)): 99 % of control
- T/C (dose: 200.0 mg/kg/injection, schedule: Q04DX002 (ip), vehicle: Klucel (hydroxypropylcellulose) (HPC)): 95 % of control

SMILES: COc1cc(C[C@H]2c3cc(OC)c(OC)cc3CCN2C)c(Oc2cc3c(cc2OC)-c2c(OC)c(OC)cc4c2[C@H](C3)N(C)CC4)cc1OC
- T/C (dose: 25.0 mg/kg/injection, schedule: Q04DX003 (ip), vehicle: saline): 89 % of control
- T/C (dose: 50.0 mg/kg/injection, schedule: Q04DX003 (ip), vehicle: saline): 95 % of control
- T/C (dose: 100.0 mg/kg/injection, schedule: Q04DX003 (ip), vehicle: saline): 90 % of control
- T/C (dose: 200.0 mg/kg/injection, schedule: Q04DX003 (ip), vehicle: saline): 93 % of control
- T/C (dose: 400.0 mg/kg/injection, schedule: Q04DX003 (ip), vehicle: saline): 95 % of control

SMILES: CC1(CO)C(=O)CCC2(C)C1CCC1CC3CC12CCC3(O)CO (stereo not given)
- T/C (dose: 37.5 mg/kg/injection, schedule: Q04DX002 (ip), vehicle: distilled water + Tween-80): 97 % of control
- T/C (dose: 75.0 mg/kg/injection, schedule: Q04DX002 (ip), vehicle: distilled water + Tween-80): 101 % of control
- T/C (dose: 150.0 mg/kg/injection, schedule: Q04DX002 (ip), vehicle: distilled water + Tween-80): 94 % of control

SMILES: [N-]=[N+]=CC(=O)CCC(N)C(=O)O (stereo not given)
- T/C (dose: 0.2 mg/kg/injection, schedule: Q04DX003 (ip), vehicle: saline): 102 % of control
- T/C (dose: 0.39 mg/kg/injection, schedule: Q04DX003 (ip), vehicle: saline): 108 % of control
- T/C (dose: 0.78 mg/kg/injection, schedule: Q04DX003 (ip), vehicle: saline): 108 % of control
- T/C (dose: 1.56 mg/kg/injection, schedule: Q04DX003 (ip), vehicle: saline): 111 % of control
- T/C (dose: 3.13 mg/kg/injection, schedule: Q04DX003 (ip), vehicle: saline): 120 % of control
- T/C (dose: 6.25 mg/kg/injection, schedule: Q04DX003 (ip), vehicle: saline): 119 % of control

SMILES: NC(Cc1ccc(N(CCCl)CCCl)cc1)C(=O)O (stereo not given)
- T/C (dose: 2.0 mg/kg/injection, schedule: Q04DX002 (ip), vehicle: Klucel (hydroxypropylcellulose) (HPC)): 168 % of control
- T/C (dose: 4.0 mg/kg/injection, schedule: Q04DX002 (ip), vehicle: Klucel (hydroxypropylcellulose) (HPC)): 253 % of control
- T/C (dose: 8.0 mg/kg/injection, schedule: Q04DX002 (ip), vehicle: Klucel (hydroxypropylcellulose) (HPC)): 245 % of control
- T/C (dose: 16.0 mg/kg/injection, schedule: Q04DX002 (ip), vehicle: Klucel (hydroxypropylcellulose) (HPC)): 156 % of control

SMILES: CC1(C)CC23C4COC(=O)C2CCC1C3CC4=O (stereo not given)
- T/C (dose: 36.0 mg/kg/injection, schedule: Q04DX003 (ip), vehicle: DMSO): 99 % of control
- T/C (dose: 62.5 mg/kg/injection, schedule: Q04DX002 (ip), vehicle: saline with Tween-80): 109 % of control
- T/C (dose: 72.0 mg/kg/injection, schedule: Q04DX003 (ip), vehicle: DMSO): 93 % of control
- T/C (dose: 125.0 mg/kg/injection, schedule: Q04DX002 (ip), vehicle: saline with Tween-80): 91 % of control
- T/C (dose: 144.0 mg/kg/injection, schedule: Q04DX003 (ip), vehicle: DMSO): 94 % of control

SMILES: Nc1ncnc2c1ncn2C1OC(CO)CC1O (stereo not given)
- T/C (dose: 37.5 mg/kg/injection, schedule: Q04DX002 (ip), vehicle: Klucel (hydroxypropylcellulose) (HPC)): 101 % of control
- T/C (dose: 75.0 mg/kg/injection, schedule: Q04DX002 (ip), vehicle: Klucel (hydroxypropylcellulose) (HPC)): 110 % of control
- T/C (dose: 150.0 mg/kg/injection, schedule: Q04DX002 (ip), vehicle: Klucel (hydroxypropylcellulose) (HPC)): 93 % of control

SMILES: N[C@H](C(=O)O)[C@@H]1CC(Cl)=NO1
- T/C (dose: 1.0 mg/kg/injection, schedule: Q04DX003 (ip), vehicle: saline): 102 % of control
- T/C (dose: 2.0 mg/kg/injection, schedule: Q04DX003 (ip), vehicle: saline): 105 % of control
- T/C (dose: 4.0 mg/kg/injection, schedule: Q04DX003 (ip), vehicle: saline): 107 % of control
- T/C (dose: 8.0 mg/kg/injection, schedule: Q04DX003 (ip), vehicle: saline): 103 % of control
- T/C (dose: 16.0 mg/kg/injection, schedule: Q04DX003 (ip), vehicle: saline): 110 % of control
- T/C (dose: 32.0 mg/kg/injection, schedule: Q04DX003 (ip), vehicle: saline): 107 % of control

SMILES: COc1cccc2c1C(=O)c1c(O)c3c(c(O)c1C2=O)C[C@@](O)(C(=O)CO)C[C@@H]3OC1CC(N(C)C)C(O)C(C)O1 (stereo not given in full)
- T/C (dose: 2.16 mg/kg/injection, schedule: Q04DX003 (ip), vehicle: water): 103 % of control
- T/C (dose: 5.6 mg/kg/injection, schedule: Q07DX003 (iv), vehicle: water): 107 % of control
- T/C (dose: 9.0 mg/kg/injection, schedule: Q07DX003 (iv), vehicle: water): 101 % of control
- T/C (dose: 14.0 mg/kg/injection, schedule: Q07DX003 (iv), vehicle: water): 92 % of control

SMILES: COC(=O)Nc1cccc(-c2nc3ccc(NC(=O)OC)cc3c(=O)n2-c2ccccc2)c1
- T/C (dose: 64.0 mg/kg/injection, schedule: Q04DX003 (ip), vehicle: Klucel (hydroxypropylcellulose) (HPC)): 171 % of control

SMILES: O=C1c2ccccc2C(=O)c2c(NCCCNCCO)ccc(NCCCNCCO)c21
- T/C (dose: 16.0 mg/kg/injection, schedule: Q01DX009 (ip), vehicle: acid diluted with saline): 107 % of control
- T/C (dose: 32.0 mg/kg/injection, schedule: Q01DX009 (ip), vehicle: acid diluted with saline): 111 % of control
- T/C (dose: 64.0 mg/kg/injection, schedule: Q01DX009 (ip), vehicle: acid diluted with saline): 123 % of control

SMILES: CC1OC(=O)C(C(C)C)NC(=O)C(C(C)C)OC(=O)C(C(C)C)NC(=O)C(C)OC(=O)C(C(C)C)NC(=O)C(C(C)C)OC(=O)C(C(C)C)NC(=O)C(C)OC(=O)C(C(C)C)NC(=O)C(C(C)C)OC(=O)C(C(C)C)NC1=O (stereo not given)
- T/C (dose: 0.75 mg/kg/injection, schedule: Q04DX003 (ip), vehicle: Klucel (hydroxypropylcellulose) (HPC)): 181 % of control
- T/C (dose: 1.5 mg/kg/injection, schedule: Q04DX003 (ip), vehicle: Klucel (hydroxypropylcellulose) (HPC)): 186 % of control
- T/C (dose: 3.0 mg/kg/injection, schedule: Q04DX003 (ip), vehicle: Klucel (hydroxypropylcellulose) (HPC)): 200 % of control
- T/C (dose: 6.0 mg/kg/injection, schedule: Q04DX003 (ip), vehicle: Klucel (hydroxypropylcellulose) (HPC)): 193 % of control
- T/C (dose: 12.0 mg/kg/injection, schedule: Q04DX003 (ip), vehicle: Klucel (hydroxypropylcellulose) (HPC)): 165 % of control

SMILES: COc1cc2c3cc1Oc1c(O)c(OC)cc4c1[C@H](Cc1ccc(cc1)Oc1cc(ccc1O)C[C@H]3N(C)CC2)N(C)CC4
- T/C (dose: 5.0 mg/kg/injection, schedule: Q04DX003 (ip), vehicle: distilled water + Tween-80): 95 % of control
- T/C (dose: 10.0 mg/kg/injection, schedule: Q04DX003 (ip), vehicle: distilled water + Tween-80): 103 % of control
- T/C (dose: 20.0 mg/kg/injection, schedule: Q04DX003 (ip), vehicle: distilled water + Tween-80): 97 % of control
- T/C (dose: 40.0 mg/kg/injection, schedule: Q04DX003 (ip), vehicle: distilled water + Tween-80): 115 % of control
- T/C (dose: 40.0 mg/kg/injection, schedule: Q04DX003 (ip), vehicle: saline with Tween-80): 95 % of control
